Reference: publication PMC7584679 (Journal of Advanced Research, 2020)

These compounds were tested against hTS (recombinant human TS, thymidylate synthase) (Homo sapiens, UniProt P04818) (assay: UV absorbance at […] nm, TS activity).
Format: biochemical

Sequence of hTS (recombinant human TS, thymidylate synthase) (P04818 2-313): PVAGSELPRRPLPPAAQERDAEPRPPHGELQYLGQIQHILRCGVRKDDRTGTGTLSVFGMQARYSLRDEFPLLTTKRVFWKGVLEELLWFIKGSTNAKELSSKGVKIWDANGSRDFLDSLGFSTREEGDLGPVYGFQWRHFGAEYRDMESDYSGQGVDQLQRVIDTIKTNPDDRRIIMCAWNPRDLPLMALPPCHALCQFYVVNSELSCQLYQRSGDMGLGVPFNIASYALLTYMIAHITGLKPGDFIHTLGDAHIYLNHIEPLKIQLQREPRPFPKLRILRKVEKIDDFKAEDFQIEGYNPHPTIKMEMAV

SMILES | IC50
O=c1[nH]cc(S(=O)(=O)Nc2cccc(-c3nnc(-c4ccccc4)o3)c2)c(=O)[nH]1 [7a, N-(3-(5-phenyl-1,3,4-oxadiazol-2-yl)phenyl)-2,4-dihydroxypyrimidine-5-sulfuramide] | 3150 ± 610 nM
Cc1ccccc1-c1nnc(-c2cccc(NS(=O)(=O)c3c[nH]c(=O)[nH]c3=O)c2)o1 [7b, N-(3-(5-(o-tolyl)-1,3,4-oxadiazol-2-yl)phenyl)-2,4-dihydroxypyrimidine −5-sulfonamide] | 2750 ± 290 nM
Cc1cccc(-c2nnc(-c3cccc(NS(=O)(=O)c4c[nH]c(=O)[nH]c4=O)c3)o2)c1 [7c, N-(3-(5-(m-tolyl)-1,3,4-oxadiazol-2-yl)phenyl)-2,4-dihydroxypyrimidine-5-sulfonamide] | 1460 ± 370 nM
Cc1ccc(-c2nnc(-c3cccc(NS(=O)(=O)c4c[nH]c(=O)[nH]c4=O)c3)o2)cc1 [7d, N-(3-(5-(p-tolyl)-1,3,4-oxadiazol-2-yl)phenyl)-2,4-dihydroxypyrimidine-5-sulfonamide] | 1790 ± 120 nM
O=c1[nH]cc(S(=O)(=O)Nc2cccc(-c3nnc(-c4ccccc4Cl)o3)c2)c(=O)[nH]1 [7e, N-(3-(5-(2-chlorophenyl)-1,3,4-oxadiazol-2-yl)phenyl)-2,4-dihydroxypyrimidine-5-sulfonamide] | 650 ± 430 nM
O=c1[nH]cc(S(=O)(=O)Nc2cccc(-c3nnc(-c4cccc(Cl)c4)o3)c2)c(=O)[nH]1 [7f, N-(3-(5-(3-chlorophenyl)-1,3,4-oxadiazol-2-yl)phenyl)-2,4-dihydroxypyrimidine-5-sulfonamide] | 110 ± 30 nM

The next lines start with the values.

IC50 | SMILES
440 ± 100 nM | O=c1[nH]cc(S(=O)(=O)Nc2cccc(-c3nnc(-c4ccc(Cl)cc4)o3)c2)c(=O)[nH]1 [7g, N-(3-(5-(4-chlorophenyl)-1,3,4-oxadiazol-2-yl)phenyl)-2,4-dihydroxypyrimidine-5-sulfonamide]
5180 ± 730 nM | O=c1[nH]cc(S(=O)(=O)Nc2cccc(-c3nnc(-c4ccccc4F)o3)c2)c(=O)[nH]1 [7h, N-(3-(5-(2-fluorophenyl)-1,3,4-oxadiazol-2-yl)phenyl)-2,4-dihydroxypyrimidine-5-sulfonamide]
4610 ± 1100 nM | O=c1[nH]cc(S(=O)(=O)Nc2cccc(-c3nnc(-c4cccc(F)c4)o3)c2)c(=O)[nH]1 [7i, N-(3-(5-(3-fluorophenyl)-1,3,4-oxadiazol-2-yl)phenyl)-2,4-dihydroxypyrimidine-5-sulfonamide]
1160 ± 370 nM | O=c1[nH]cc(S(=O)(=O)Nc2cccc(-c3nnc(-c4ccccc4Br)o3)c2)c(=O)[nH]1 [7k, N-(3-(5-(2-bromophenyl)-1,3,4-oxadiazol-2-yl)phenyl)-2,4-dihydroxypyrimidine-5-sulfonamide]
930 ± 280 nM | O=c1[nH]cc(S(=O)(=O)Nc2cccc(-c3nnc(-c4cccc(Br)c4)o3)c2)c(=O)[nH]1 [7l, N-(3-(5-(3-bromophenyl)-1,3,4-oxadiazol-2-yl)phenyl)-2,4-dihydroxypyrimidine-5-sulfonamide]
1290 ± 120 nM | O=c1[nH]cc(S(=O)(=O)Nc2cccc(-c3nnc(-c4ccc(Br)cc4)o3)c2)c(=O)[nH]1 [7m, N-(3-(5-(4-bromophenyl)-1,3,4-oxadiazol-2-yl)phenyl)-2,4-dihydroxypyrimidine-5-sulfonamide]
2440 ± 880 nM | Nc1nc2[nH]cc(CCc3ccc(C(=O)N[C@@H](CCC(=O)O)C(=O)O)cc3)c2c(=O)[nH]1 [PTX]
